Tested on: participants with schizophrenia or related psychotic disorder
Assay: Scale for the Assessment of Negative Symptoms (SANS), double-blind placebo-controlled study of CBD as adjunctive therapy
Format: in vivo, human
Description: Example 1 below describes the use of a highly purified cannabis extract comprising cannabidiol (CBD) in a human clinical trial. Example 1 describes data produced in a double-blind, randomised, placebo-controlled, parallel group study of highly purified CBD as adjunctive therapy in first line treatment of schizophrenia or related psychotic disorder.
An eight-week, multi-centre, double-blind, randomised, placebo-controlled, parallel group study was conducted with the aim to determine the efficacy, safety and tolerability of highly purified CBD as adjunctive therapy in first line treatment of schizophrenia or related psychotic disorder.
This study evaluated the efficacy of highly purified CBD compared with placebo on the participant's PANSS Total score, ‘P’, ‘N’, ‘G’, SANS and BACS scores.
Changes from baseline in PANSS scores (Total, ‘P’, ‘N’ and ‘G’), SANS and BACS were recorded at the start of the study (baseline) and at the end of treatment (after 6 weeks treatment with CBD or placebo).
For inclusion in the study participants were required to be male or female aged 18 to 65 years, diagnosed with schizophrenia or a related psychotic disorder (such as schizoaffective or schizophreniform disorder) as defined by the Diagnostic and Statistical Manual of Mental Disorders Version 4. Participants must have been treated for a minimum of four-weeks and be on a stable dose of their current antipsychotic medication. […] A PANSS score in excess of 60 infers that the patient has symptoms related to schizophrenia or related disorders.
The participants were randomised to one of two treatment groups which each consisted of 39 participants. Treatment was administered as either 5 ml CBD (100 mg/ml) oral solution to be taken twice daily or 5 ml matched placebo oral solution to be taken twice daily.
Scale for the Assessment of Negative Symptoms (SANS)
SANS assesses five symptom complexes to obtain clinical ratings of negative symptoms in participants with schizophrenia or related psychotic disorder. They are: affective blunting; alogia (impoverished thinking); avolition/apathy; anhedonia/asociality; and disturbance of attention.
Assessments are conducted on a six-point scale (0=not at all to 5=severe). This scale was measured at each assessment visit (Visit 1-4)

[1] = CBD adjunct, 6 weeks, all patients
[2] = CBD adjunct, 6 weeks, patients on amisulpride
[3] = CBD adjunct, 6 weeks, patients on aripiprazole
[4] = CBD adjunct, 6 weeks, patients on olanzapine
[5] = CBD adjunct, 6 weeks, patients on other antipsychotics
[6] = CBD adjunct, 6 weeks, patients on quetiapine
[7] = CBD adjunct, 6 weeks, patients on risperidone

In the case of `C=C(C)[C@@H]1CCC(C)=C[C@H]1c1c(O)cc(CCCCC)cc1O` [CBD, Cannabidiol], the “Change in baseline scores, SANS question 15: Impersistence at work or school” value [1] is reported as −0.5, the “Change in baseline scores, SANS question 18: Recreational interests and activity” value (“Change … Recreational interests and activity” below) [1] is reported as −0.6 and the “Change in baseline scores, SANS question 19: Sexual interest and activity” value (“Change … Sexual interest and activity” below) [1] is reported as −0.4. The “Change in baseline scores, SANS question 20: Ability to feel closeness and intimacy” value (“Change … to feel closeness and intimacy” for short) [1] was −0.3, the “Change in baseline scores, SANS question 21: Relationships with friends and peers” value (“Change … with friends and peers” below) [1] was −0.3 and the “Change in baseline scores, SANS question 22: Global rating of anhedonia” value (shortened to “Change in baseline scores … of anhedonia”) [1] was −0.3. For the same compound, the “Change in baseline scores, SANS question 23: Social inattentiveness” value (“Change … Social inattentiveness” below) [1] was −0.5, the “Change in baseline scores, SANS question 24: Inattentiveness during mental status testing” value [1] was −0.6 and the “Change in baseline scores, SANS question 25: Global rating of attention” value (shortened to “Change … Global rating of attention”) [1] was −0.5. The “Change in baseline scores, SANS sub-scale 4 (anhedonia/asociality)” value (“Change … (anhedonia/asociality)” for short) [1] was −1.9, the “Change in baseline scores, SANS sub-scale 5 (disturbance of attention)” value (from here on “Change … (disturbance of attention)”) [1] was −1.6 and the “Change in baseline scores, SANS total score” value [1] was −9.5. For the same compound, the “Change in baseline scores, SANS question 15: Impersistence at work or school” value [2] was −0.5, the “Change … Recreational interests and activity” value [2] was 0.0 and the “Change … Sexual interest and activity” value [2] was 0.0. For the same compound, the “Change … to feel closeness and intimacy” value [2] was −0.1, the “Change … with friends and peers” value [2] was −0.1 and the “Change in baseline scores … of anhedonia” value [2] was −0.1. For the same compound, the “Change … Social inattentiveness” value [2] was −0.1, the “Change in baseline scores, SANS question 24: Inattentiveness during mental status testing” value [2] was −0.8 and the “Change … Global rating of attention” value [2] was 0.0. For the same compound, the “Change in baseline scores, SANS score” value [2] was −2.4, the “Change … (anhedonia/asociality)” value [2] was −0.1 and the “Change … (disturbance of attention)” value [2] was −1.0. The “Change in baseline scores, SANS question 15: Impersistence at work or school” value [3] was −0.3, the “Change … Recreational interests and activity” value [3] was −0.1 and the “Change … Sexual interest and activity” value [3] was −0.1. For the same compound, the “Change … to feel closeness and intimacy” value [3] was 0.0, the “Change … with friends and peers” value [3] was −0.1 and the “Change in baseline scores … of anhedonia” value [3] was 0.0. The “Change … Social inattentiveness” value [3] was −0.4, the “Change in baseline scores, SANS question 24: Inattentiveness during mental status testing” value [3] was −0.5 and the “Change … Global rating of attention” value [3] was −0.4. For the same compound, the “Change in baseline scores, SANS score” value [3] was −4.7, the “Change … (anhedonia/asociality)” value [3] was −0.2 and the “Change … (disturbance of attention)” value [3] was −1.3. The “Change in baseline scores, SANS question 15: Impersistence at work or school” value [4] was −1.2, the “Change … Recreational interests and activity” value [4] was −1.3 and the “Change … Sexual interest and activity” value [4] was −1.0. The “Change … to feel closeness and intimacy” value [4] was −1.0, the “Change … with friends and peers” value [4] was −0.6 and the “Change in baseline scores … of anhedonia” value [4] was −0.8. The “Change … Social inattentiveness” value [4] was −0.9, the “Change in baseline scores, SANS question 24: Inattentiveness during mental status testing” value [4] was −0.7 and the “Change … Global rating of attention” value [4] was −0.9. The “Change in baseline scores, SANS score” value [4] was −20.5, the “Change … (anhedonia/asociality)” value [4] was −4.9 and the “Change … (disturbance of attention)” value [4] was −2.5. For the same compound, the “Change … Recreational interests and activity” value [5] was −0.4, the “Change … Sexual interest and activity” value [5] was −0.3 and the “Change … to feel closeness and intimacy” value [5] was −0.1. For the same compound, the “Change … with friends and peers” value [5] was −0.2, the “Change in baseline scores … of anhedonia” value [5] was −0.2 and the “Change … Social inattentiveness” value [5] was −0.9. For the same compound, the “Change in baseline scores, SANS question 24: Inattentiveness during mental status testing” value [5] was −1.3, the “Change … Global rating of attention” value [5] was −0.3 and the “Change in baseline scores, SANS score” value [5] was −10.6. For the same compound, the “Change … (anhedonia/asociality)” value [5] was −1.2, the “Change … (disturbance of attention)” value [5] was −2.5 and the “Change … Recreational interests and activity” value [6] was −1.3. For the same compound, the “Change … Sexual interest and activity” value [6] was −1.5, the “Change … to feel closeness and intimacy” value [6] was −0.4 and the “Change … with friends and peers” value [6] was −0.7. For the same compound, the “Change in baseline scores … of anhedonia” value [6] was −1.3, the “Change … Social inattentiveness” value [6] was −0.6 and the “Change in baseline scores, SANS question 24: Inattentiveness during mental status testing” value [6] was −0.9. For the same compound, the “Change … Global rating of attention” value [6] was −0.5, the “Change in baseline scores, SANS score” value [6] was −10.4 and the “Change … (anhedonia/asociality)” value [6] was −5.1. For the same compound, the “Change … (disturbance of attention)” value [6] was −1.8, the “Change in baseline scores, SANS question 15: Impersistence at work or school” value [7] was −0.3 and the “Change … Recreational interests and activity” value [7] was −0.3. The “Change … Sexual interest and activity” value [7] was 0.0, the “Change … to feel closeness and intimacy” value [7] was 0.0 and the “Change … with friends and peers” value [7] was −0.1. The “Change in baseline scores … of anhedonia” value [7] was −0.2, the “Change … Social inattentiveness” value [7] was 0.2 and the “Change in baseline scores, SANS question 24: Inattentiveness during mental status testing” value [7] was −0.1. The “Change … Global rating of attention” value [7] was 0.0, the “Change in baseline scores, SANS score” value [7] was −3.6 and the “Change … (anhedonia/asociality)” value [7] was −0.4. The “Change … (disturbance of attention)” value [7] was 0.1 and the “Change in baseline scores, SANS question 15: Impersistence at work or school: difference” value (CBD vs placebo, all patients, P = 0.0187) was “(−0.4)”.
